Source: patent publication US20260297080A1, “BICYCLIC COMPOUNDS AS CDK INHIBITORS” (BeOne Medicines I GmbH, priority 2022, published 2026)

What was measured:
[1] = target: CDK1/Cyclin B1 (Homo sapiens, UniProt P06493); assay: CDK1/Cyclin B1 Biochemical Assay (TR-FRET), 0.015 mM ATP; details: 0.15 μM Rb (Ser780)-biotin substrate, pH7.0, 60 min preincubation, 120 min reaction, room temperature
Method in brief: (§1)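 TR-FRET assay with 0.15 μM Rb (Ser780)-biotin substrate and 0-10 μM compound in 50 mM HEPES pH7.0, 50 mM MgCl2, 1 mM DTT. ATP was 0.060 mM for CDK2/Cyclin E1 and 0.015 mM for CDK1/Cyclin B1. Kinase was preincubated with compound 60 min, reacted 120 min at room temperature, and IC50 was fitted (four-parameter) from the 665/620 nm ratio.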

[2] = target: CDK2/Cyclin E1 (Homo sapiens, UniProt P24941); assay: CDK2/Cyclin E1 Biochemical Assay (TR-FRET), 0.060 mM ATP; details: 0.15 μM Rb (Ser780)-biotin substrate, pH7.0, 60 min preincubation, 120 min reaction, room temperature
Method in brief: as §1

Sequence of CDK1/Cyclin B1 (P06493 whole entry): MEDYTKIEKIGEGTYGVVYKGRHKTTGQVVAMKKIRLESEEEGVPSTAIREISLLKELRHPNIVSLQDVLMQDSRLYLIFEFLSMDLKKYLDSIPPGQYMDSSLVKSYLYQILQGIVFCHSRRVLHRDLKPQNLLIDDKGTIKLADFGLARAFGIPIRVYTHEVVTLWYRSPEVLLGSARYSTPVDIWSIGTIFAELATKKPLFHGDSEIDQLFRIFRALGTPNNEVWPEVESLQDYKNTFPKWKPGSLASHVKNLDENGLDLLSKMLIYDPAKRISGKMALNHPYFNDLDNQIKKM
Sequence of CDK1/Cyclin B1 (P14635 whole entry partner): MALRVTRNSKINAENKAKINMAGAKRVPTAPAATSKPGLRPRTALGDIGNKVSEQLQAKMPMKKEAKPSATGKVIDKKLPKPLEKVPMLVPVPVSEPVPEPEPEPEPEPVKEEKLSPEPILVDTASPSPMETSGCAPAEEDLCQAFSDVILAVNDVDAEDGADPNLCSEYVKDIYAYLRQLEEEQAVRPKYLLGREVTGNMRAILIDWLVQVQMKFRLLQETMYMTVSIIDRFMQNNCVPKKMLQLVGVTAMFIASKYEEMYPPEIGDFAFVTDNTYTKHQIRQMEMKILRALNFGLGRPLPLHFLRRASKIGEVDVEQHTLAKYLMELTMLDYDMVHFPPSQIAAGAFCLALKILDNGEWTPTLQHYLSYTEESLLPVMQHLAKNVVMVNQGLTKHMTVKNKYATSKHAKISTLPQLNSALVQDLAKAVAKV

Row | SMILES | IC50 [1] [nM] | IC50 [2] [nM]
1 | CN1Cc2c(ccc(Nc3cc([C@@H]4CC[C@H](OC(=O)NC5(C)CCOC5)C4)[nH]n3)c2F)S1(=O)=O (relative stereo) [Example 335, cis-3-(3-((4-fluoro-2-methyl-1,1-dioxido-2,3-dihydrobenzo[d]isothiazol-5-yl)amino)-1H-pyrazol-5-yl)cyclopentyl(3-methyltetrahydrofuran-3-yl)carbamate] | 351 | 5.1
2 | CN1Cc2c(ccc(Nc3cc([C@@H]4CC[C@H](OC(=O)NC5COC5)C4)[nH]n3)c2F)S1(=O)=O (relative stereo) [Example 336, cis-3-(3-((4-fluoro-2-methyl-1,1-dioxido-2,3-dihydrobenzo[d]isothiazol-5-yl)amino)-1H-pyrazol-5-yl)cyclopentyl oxetan-3-ylcarbamate] | 1470 | 97
3 | COCC(C)NC(=O)O[C@H]1CC[C@@H](c2cc(Nc3ccc4c(c3F)CN(C)S4(=O)=O)n[nH]2)C1 (relative stereo) [Example 338, cis-3-(3-((4-fluoro-2-methyl-1,1-dioxido-2,3-dihydrobenzo[d]isothiazol-5-yl)amino)-1H-pyrazol-5-yl)cyclopentyl(1-methoxypropan-2-yl)carbamate] | 544 | 13
4 | CN1c2ccc(Nc3cc([C@@H]4CC[C@H](OC(=O)NC5(CO)CC5)C4)[nH]n3)cc2CS1(=O)=O (relative stereo) [Example 342, cis-3-(3-((1-methyl-2,2-dioxido-1,3-dihydrobenzo[c]isothiazol-5-yl)amino)-1H-pyrazol-5-yl)cyclopentyl(1-(hydroxymethyl)cyclopropyl)carbamate] | 61 | 4.9
5 | CC(C)NC(=O)O[C@H]1CC[C@@H](c2cc(Nc3ccc4c(c3CO)CNS4(=O)=O)n[nH]2)C1 (relative stereo) [Example 345, cis-3-(3-((4-(hydroxymethyl)-1,1-dioxido-2,3-dihydrobenzo[d]isothiazol-5-yl)amino)-1H-pyrazol-5-yl)cyclopentyl isopropylcarbamate] | 1730 | 64
6 | CC(C)NC(=O)O[C@H]1CC[C@@H](c2cc(Nc3ccc4c(c3)C(F)(F)S(=O)(=O)N4C)n[nH]2)C1 (relative stereo) [Example 346, cis-3-(3-((3,3-difluoro-1-methyl-2,2-dioxido-1,3-dihydrobenzo[c]isothiazol-5-yl)amino)-1H-pyrazol-5-yl)cyclopentyl isopropylcarbamate] | 482 | 31
7 | CN1c2ccc(Nc3cc([C@@H]4CC[C@H](OC(=O)N[C@H]5CC[C@@H](O)CC5)C4)[nH]n3)c(F)c2CS1(=O)=O (relative stereo) [Example 347, cis-3-(3-((4-fluoro-1-methyl-2,2-dioxido-1,3-dihydrobenzo[c]isothiazol-5-yl)amino)-1H-pyrazol-5-yl)cyclopentyl((1s,4s)-4-hydroxycyclohexyl)carbamate] | 411 | 9.3
8 | C[C@@H](CO)NC(=O)O[C@H]1CC[C@@H](c2cc(Nc3ccc4c(c3F)CS(=O)(=O)N4C)n[nH]2)C1 (relative stereo) [Example 348, cis-3-(3-((4-fluoro-1-methyl-2,2-dioxido-1,3-dihydrobenzo[c]isothiazol-5-yl)amino)-1H-pyrazol-5-yl)cyclopentyl((S)-1-hydroxypropan-2-yl)carbamate] | 635 | 22
9 | C[C@@H](CO)NC(=O)O[C@H]1CC[C@@H](c2cc(Nc3ccc4c(c3F)CN(C)S4(=O)=O)n[nH]2)C1 (relative stereo) [Example 351, cis-3-(3-((4-fluoro-2-methyl-1,1-dioxido-2,3-dihydrobenzo[d]isothiazol-5-yl)amino)-1H-pyrazol-5-yl)cyclopentyl((S)-1-hydroxypropan-2-yl)carbamate] | 658 | 40
10 | C[C@H]1[C@H](O)CN1C(=O)O[C@H]1CC[C@@H](c2cc(Nc3ccc4c(c3F)CS(=O)(=O)N4C)n[nH]2)C1 (relative stereo) [Example 355, cis-3-(3-((4-fluoro-1-methyl-2,2-dioxido-1,3-dihydrobenzo[c]isothiazol-5-yl)amino)-1H-pyrazol-5-yl)cyclopentyl(2S,3R)-3-hydroxy-2-methylazetidine-1-carboxylate] | 361 | 19
11 | CC(NC(=O)O[C@H]1CC[C@@H](c2cc(Nc3ccc4c(c3F)CN(C3CC3)S4(=O)=O)n[nH]2)C1)C1COC1 (relative stereo) [Example 357, cis-3-(3-((2-cyclopropyl-4-fluoro-1,1-dioxido-2,3-dihydrobenzo[d]isothiazol-5-yl)amino)-1H-pyrazol-5-yl)cyclopentyl(1-(oxetan-3-yl)ethyl)carbamate] | 817 | 23
12 | CC1(NC(=O)O[C@H]2CC[C@@H](c3cc(Nc4ccc5c(c4F)CN(C4CC4)S5(=O)=O)n[nH]3)C2)CCOC1 (relative stereo) [Example 358, cis-3-(3-((2-cyclopropyl-4-fluoro-1,1-dioxido-2,3-dihydrobenzo[d]isothiazol-5-yl)amino)-1H-pyrazol-5-yl)cyclopentyl(3-methyltetrahydrofuran-3-yl)carbamate] | 221 | 2.6
13 | O=C(NC1(CO)CC1)O[C@H]1CC[C@@H](c2cc(Nc3ccc4c(c3F)CN(C3CC3)S4(=O)=O)n[nH]2)C1 (relative stereo) [Example 360, cis-3-(3-((2-cyclopropyl-4-fluoro-1,1-dioxido-2,3-dihydrobenzo[d]isothiazol-5-yl)amino)-1H-pyrazol-5-yl)cyclopentyl(1-(hydroxymethyl)cyclopropyl)carbamate] | 358 | 12
14 | COCC(C)NC(=O)O[C@H]1CC[C@@H](c2cc(Nc3ccc4c(c3F)CN(C3CC3)S4(=O)=O)n[nH]2)C1 (relative stereo) [Example 361, cis-3-(3-((2-cyclopropyl-4-fluoro-1,1-dioxido-2,3-dihydrobenzo[d]isothiazol-5-yl)amino)-1H-pyrazol-5-yl)cyclopentyl(1-methoxypropan-2-yl)carbamate] | 349 | 8.4

The remaining molecules from weak to strong by IC50 [1], led by results:

Row | IC50 [1] [nM] | IC50 [2] [nM] | SMILES
15 | 1730 | 42 | CC(NC(=O)O[C@H]1CC[C@@H](c2cc(Nc3ccc4c(c3F)CN(C)S4(=O)=O)n[nH]2)C1)C1COC1 (relative stereo) [Example 337, cis-3-(3-((4-fluoro-2-methyl-1,1-dioxido-2,3-dihydrobenzo[d]isothiazol-5-yl)amino)-1H-pyrazol-5-yl)cyclopentyl(1-(oxetan-3-yl)ethyl)carbamate]
16 | 1580 | 164 | CC(C)NC(=O)O[C@H]1CC[C@@H](c2cc(Nc3ccc4c(c3F)C(F)(F)S(=O)(=O)N4)n[nH]2)C1 (relative stereo) [Example 356, cis-3-(3-((3,3,4-trifluoro-2,2-dioxido-1,3-dihydrobenzo[c]isothiazol-5-yl)amino)-1H-pyrazol-5-yl)cyclopentyl isopropylcarbamate]
17 | 899 | 84 | CC(C)NC(=O)O[C@H]1CC[C@@H](c2cc(Nc3ccc4c(c3)C(F)(F)S(=O)(=O)N4)n[nH]2)C1 (relative stereo) [Example 334, cis-3-(3-((3,3-difluoro-2,2-dioxido-1,3-dihydrobenzo[c]isothiazol-5-yl)amino)-1H-pyrazol-5-yl)cyclopentyl isopropylcarbamate]
18 | 626 | 6.4 | COCC1(NC(=O)O[C@H]2CC[C@@H](c3cc(Nc4ccc5c(c4F)CN(C)S5(=O)=O)n[nH]3)C2)CC1 (relative stereo) [Example 344, cis-3-(3-((4-fluoro-2-methyl-1,1-dioxido-2,3-dihydrobenzo[d]isothiazol-5-yl)amino)-1H-pyrazol-5-yl)cyclopentyl(1-(methoxymethyl)cyclopropyl)carbamate]
19 | 321 | 20 | CN1c2ccc(Nc3cc([C@@H]4CC[C@H](OC(=O)NC5(CO)CC5)C4)[nH]n3)c(F)c2CS1(=O)=O (relative stereo) [Example 350, cis-3-(3-((4-fluoro-1-methyl-2,2-dioxido-1,3-dihydrobenzo[c]isothiazol-5-yl)amino)-1H-pyrazol-5-yl)cyclopentyl(1-(hydroxymethyl)cyclopropyl)carbamate]
20 | 93 | 2.4 | Cc1c(Nc2cc([C@@H]3CC[C@H](OC(=O)NC(C)C)C3)[nH]n2)ccc2c1S(=O)(=O)NC2 (relative stereo) [Example 353, cis-3-(3-((7-methyl-1,1-dioxido-2,3-dihydrobenzo[d]isothiazol-6-yl)amino)-1H-pyrazol-5-yl)cyclopentyl isopropylcarbamate]
21 | 85 | 11 | C[C@H]1[C@H](O)CN1C(=O)O[C@H]1CC[C@@H](c2cc(Nc3ccc4c(c3)CS(=O)(=O)N4C)n[nH]2)C1 (relative stereo) [Example 354, cis-3-(3-((1-methyl-2,2-dioxido-1,3-dihydrobenzo[c]isothiazol-5-yl)amino)-1H-pyrazol-5-yl)cyclopentyl(2S,3R)-3-hydroxy-2-methylazetidine-1-carboxylate]
22 | 77 | 4.7 | CN1c2ccc(Nc3cc([C@@H]4CC[C@H](OC(=O)N[C@H]5CC[C@@H](O)CC5)C4)[nH]n3)cc2CS1(=O)=O (relative stereo) [Example 341, cis-3-(3-((1-methyl-2,2-dioxido-1,3-dihydrobenzo[c]isothiazol-5-yl)amino)-1H-pyrazol-5-yl)cyclopentyl((1s,4s)-4-hydroxycyclohexyl)carbamate]
23 | 43 | 3.2 | CC(NC(=O)O[C@H]1CC[C@@H](c2cc(Nc3ccc4c(c3)CS(=O)(=O)N4)n[nH]2)C1)C1COC1 (relative stereo) [Example 343, cis-3-(3-((2,2-dioxido-1,3-dihydrobenzo[c]isothiazol-5-yl)amino)-1H-pyrazol-5-yl)cyclopentyl(1-(oxetan-3-yl)ethyl)carbamate]
